Patent publication US5880092A, “Conformationally stabilized cell adhesion peptides” (La Jolla Cancer Research Foundation, priority 1995, dated 1999)
Where no end group is shown, it is not given here. [ ]: non-standard residue; d: D form. Pen = CC(C)(S)[C@H](N)C(=O)O

Legend:
[1] = test system: attachment of normal rat kidney cells to fibronectin; test: Cell adhesion assay: inhibition of attachment of normal rat kidney cells to fibronectin; format: cell-based; conditions: fibronectin from human plasma coated at 12 μg/ml, peptide 0 to 10.0 mM, FIG. 2
Method: (§1) Fibronectin and vitronectin were purified from human plasma according to the methods of Ruoslahti et al., (1982) Meth. Enz. 82:803; and Hayman et al., (1983) PNAS 80:4003, respectively, both of which are incorporated herein by reference. The adhesion of normal rat kidney cells to fibronectin and vitronectin was assayed as described in Ruoslahti et al., Meth. Enz. supra. Briefly, 0.1 ml solution of fibronectin or vitronectin at a concentration of 12 μg/ml in 0.1M PBS was placed in each well of 96-well plastic microtiter plates and left for 2 hours at room temperature. The unattached protein was removed by washing three times with PBS.
(§2) One day before the assay, a confluent culture of normal rat kidney cells was split 1:2 using standard tissue culture trypsin. The cells were washed three times with PBS, pH 7.2. […] Before the last centrifugation, a sample was taken and cell numbers and viability by trypan blue exclusion are determined. […]
(§3) The unattached cells were removed simply by removing the medium and washing the wells. […] The cells were then fixed with 3% paraformaldehyde in PBS and stained with 1% toluidine blue, paraformaldehyde in PBS, and attached cells counted. Their number was determined using a cell counter that is capable of counting cells attached to a surface (Dynatech Laboratories, Alexandria, Va.). […]

[2] = test system: attachment of normal rat kidney cells to vitronectin; test: Cell adhesion assay: inhibition of attachment of normal rat kidney cells to vitronectin; format: cell-based; conditions: vitronectin from human plasma coated at 12 μg/ml, peptide 0 to 10.0 mM, FIG. 2
Method: as §1, §2, §3

Substance: G[Pen]GRGDSPC (cysteine pairing not given here) [linear peptide]
- inhibition of attachment to fibronectin [1]: inhibited attachment of cells to both substrates at relatively similar concentrations
- inhibition of attachment to vitronectin [2]: inhibited attachment of cells to both substrates at relatively similar concentrations
